Earlier results, collected in patent US12133913B2, “Methods of treating overactive bladder using trospium” (TARIS BIOMEDICAL LLC, priority 2018, dated 2024).
Counter-ions that a name gives are not always drawn. Like-named read-outs stand apart in the source and are kept apart here.

Experiments:
[1] = test system: oral naïve overactive bladder patients
[2] = in vivo

Cc1ccc(O)c([C@H](CCN(C(C)C)C(C)C)c2ccccc2)c1 [Detrol® LA, tolterodine tartrate]
Reduction in average daily incontinence episodes from baseline ([1]; in vivo, po): 0.8

O=C(O[C@H]1CN2CCC1CC2)N1CCc2ccccc2[C@@H]1c1ccccc1 [VESIcare®, solifenacin succinate]
Reduction in average daily incontinence episodes from baseline ([1]; oral treatment, oral naïve patients): 1.4

O=C(OC1CC2CCC(C1)[N+]21CCCC1)C(O)(c1ccccc1)c1ccccc1.[Cl-] (stereo not drawn) [oral trospium, 3-(2-hydroxy-2,2-diphenylacetoxy)spiro[bicyclo[3.2.1]octane-8,1′-pyrrolidin]-1′-ium chloride]
Predicted urine levels achieved with oral trospium [2]: 0.5 to 1 µg/mL
